Assay results as given in patent US4958010A, “Epipodophyllotoxin glucoside lactam derivatives” (Bristol-Myers Company, priority 1989, dated 1990).
Converted amounts (≈) assume the structure as drawn. “And” between values parts separate entries of the source, which are not always exact repeats. Equal entries are not always repeated.

What was measured:
Assay type in all cases: cell-based
B16-F10 murine melanoma = assay: in vitro cytotoxicity assay, B16-F10 murine melanoma; conditions: four-fold serial dilution, replicate determinations on separate lines; for IC50 B16-F10: concentration required to inhibit cell growth by 50%; for IC50: Mus musculus, B16-F10, concentration required to inhibit cell growth by 50%
Method: (§1) Representative compounds of the present invention were also evaluated in in vitro cytotoxicity assay against various murine and human tumor cell lines. The in vitro cytotoxicity assay involved growing various mammalian tumor cells, including human tumor cells, on microtitre plates employing established tissue culture methods. The concentration of each compound required to inhibit cell growth by 50% (IC50) was then determined by four-fold serial dilution technique. Tumor cells of the following types were employed for each compound tested: B16-F10 murine melanoma; Moser human colon; SW900 human lung; and two human colon tumor cell lines namely HCT-116, and HCT/VP35, the latter being resistant to etoposide (VP). […] The in vitro data may also be evaluated in terms of potency ratio which is defined as the ratio of IC50 against an etoposide-resistant cell-line to IC50 against an etoposide-sensitive cell-line.

HCT-116 = assay: in vitro cytotoxicity assay, HCT-116 human colon tumor; conditions: four-fold serial dilution, replicate determinations on separate lines; for IC50: Homo sapiens, HCT-116, concentration required to inhibit cell growth by 50%; for IC50 HCT-116: concentration required to inhibit cell growth by 50%
Method: as §1

HCT/VP35 = assay: in vitro cytotoxicity assay, HCT/VP35 human colon tumor resistant to etoposide; conditions: for IC50: Homo sapiens, HCT/VP35, etoposide-resistant line; for IC50 / IC50 HCT/VP35: concentration required to inhibit cell growth by 50%, four-fold serial dilution, replicate determinations on separate lines; for IC50 HCT/VP35: etoposide-resistant line
Method: as §1

Moser human colon = assay: in vitro cytotoxicity assay, Moser human colon; conditions: concentration required to inhibit cell growth by 50%, four-fold serial dilution, replicate determinations on separate lines; for IC50: Homo sapiens
Method: as §1

SW900 human lung = assay: in vitro cytotoxicity assay, SW900 human lung; conditions: four-fold serial dilution, replicate determinations on separate lines; for IC50: Homo sapiens, SW900, concentration required to inhibit cell growth by 50%; for IC50 SW900: concentration required to inhibit cell growth by 50%
Method: as §1

Row | Structure (SMILES) | IC50 B16-F10 (B16-F10 murine melanoma) | IC50 (HCT-116) [µg/mL] | IC50 HCT-116 (HCT-116) | IC50 (HCT/VP35) [µg/mL] | IC50 (Moser human colon) [µg/mL] | IC50 (SW900 human lung) [µg/mL] | IC50 (B16-F10 murine melanoma) [µg/mL] | IC50 Moser (Moser human colon) | IC50 HCT/VP35 (HCT/VP35) | IC50 SW900 (SW900 human lung) | potency ratio IC50 HCT/VP35 : IC50 HCT-116 (HCT/VP35; ratio of IC50 against etoposide-resistant cell line to IC50 against etoposide-sensitive cell line, same experiment)
1 | COc1cc([C@@H]2c3cc4c(cc3[C@@H](O[C@@H]3O[C@@H]5CO[C@@H](C)O[C@H]5[C@H](O)[C@H]3O)[C@H]3CN(N=Cc5ccc([N+](=O)[O-])cc5)C(=O)[C@H]23)OCO4)cc(OC)c1O [Example 6, 6H-Pyrrolo[3',4':6,7]naphtho[2,3-d]-1,3-dioxole-6-one, 5,5a,7,8,8a,9-hexahydro-9-[(4,6-O-ethylidene-δ-D-glucopyranosyl)oxy]-5-[(4-hydroxy-3,5-dimethoxy)phenyl]-7-[[(4-nitrophenyl)methylene]amino], [5R-[5α,5aβ,8aα,9β(R*)]-] | 7.73 µg/mL and 16.11 µg/mL | 83.6 (≈ 114 µM) | 60.66 µg/mL (≈ 82.5 µM) | > 250 | > 250 | > 250 |  |  |  |  | 
2 | COc1cc([C@@H]2c3cc4c(cc3[C@@H](O[C@@H]3O[C@@H]5CO[C@@H](C)O[C@H]5[C@H](O)[C@H]3O)[C@H]3CN(NCc5ccccc5)C(=O)[C@H]23)OCO4)cc(OC)c1O [Example 4, 6H-Pyrrolo[3',4':6,7]naphtho[2,3-d]-1,3-dioxole-6-one, 5,5a,7,8,8a,9-hexahydro-9-[(4,6-O-ethylidene-β-D-glucopyranosyl)oxy]-5-[(4-hydroxy-3,5-dimethoxy)phenyl]-7-[(phenylmethyl)amino]-, [5R-[5α,5aβ,8aα,9β(R*)]-] | 95.19 µg/mL (≈ 137 µM) | 105 (≈ 151 µM) | 113.88 µg/mL (≈ 164 µM) | > 250 |  | > 250 | 73.4 (≈ 106 µM) | 122.94 µg/mL and > 250 µg/mL |  |  | 
3 | COc1cc([C@@H]2c3cc4c(cc3[C@@H](O[C@@H]3O[C@@H]5CO[C@@H](C)O[C@H]5[C@H](O)[C@H]3O)[C@H]3CNC(=O)[C@H]23)OCO4)cc(OC)c1O [Example 5, 6H-Pyrrolo[3',4':6,7]naphtho[2,3-d]-1,3-dioxole-6-one,5,5a,7,8,8a,9-hexahydro-9-[(4,6-O-ethylidene-β-D-glucopyranosyl)oxy]-5-[(4-hydroxy-3,5-dimethoxy)phenyl]-, [5R-[5α,5aα,8aα, 9β(R*)]-] | 27.92 µg/mL and 72.27 µg/mL | 56.1 (≈ 95.5 µM) | 66.52 µg/mL (≈ 113 µM) | 103 (≈ 175 µM) | 81.1 (≈ 138 µM) | 107 (≈ 183 µM) |  | 102.51 µg/mL (≈ 174 µM) | 111.78 µg/mL (≈ 190 µM) | 123.53 µg/mL (≈ 210 µM) | 
4 | CCCCCCCC=NN1C[C@H]2[C@H](C1=O)[C@H](c1cc(OC)c(O)c(OC)c1)c1cc3c(cc1[C@H]2O[C@@H]1O[C@@H]2CO[C@@H](C)O[C@H]2[C@H](O)[C@H]1O)OCO3 [Example 9, 6H-Pyrrolo[3',4':6,7]naphtho[2,3-d]-1,3-dioxole-6-one, 5,5a,7,8,8a,9-hexahydro-9-[(4,6-O-ethylidene-β-D-glucopyranosyl)oxy]-5-[(4-hydroxy-3,5-dimethoxy)phenyl]-7-[(octylidene)amino]-, [5R-[5α,5aβ,8aα,9β(R*)]-] | 6.70 µg/mL and 10.21 µg/mL |  | 3.39 µg/mL and 4.68 µg/mL and 16.63 µg/mL |  | 11.5 (≈ 16.1 µM) |  | 6.64 (≈ 9.32 µM) | 15.09 µg/mL and 15.98 µg/mL | 6.85 µg/mL and 23.65 µg/mL | 21.21 µg/mL and 52.18 µg/mL and 95.53 µg/mL | 
5 | COc1cc([C@@H]2c3cc4c(cc3[C@@H](O[C@@H]3O[C@@H]5CO[C@@H](C)O[C@H]5[C@H](O)[C@H]3O)[C@H]3CN(N=Cc5ccccc5)C(=O)[C@H]23)OCO4)cc(OC)c1O [Example 3, 6H-Pyrrolo[3',4':6,7]naphtho[2,3-d]-1,3-dioxole-6-one, 5,5a,7,8,8a,9-hexahydro-9-[(4,6-O-ethylidene-β-D-glucopyranosyl)oxy]-5-[(4-hydroxy-3,5-dimethoxy)phenyl]-7-[(phenylmethylene)amino][5R-[5α,5aβ,8aα,9β(R*)]-] | 17.80 µg/mL (≈ 25.8 µM) | 23.8 (≈ 34.4 µM) | 20.04 µg/mL (≈ 29 µM) | 38.3 (≈ 55.5 µM) | 56.4 (≈ 81.7 µM) | 36.5 (≈ 52.8 µM) | 10.3 (≈ 15 µM) | 73.81 µg/mL (≈ 107 µM) | 42.37 µg/mL (≈ 61.3 µM) | 48.73 µg/mL (≈ 70.6 µM) | 
6 | CCCCCCCC(=O)Oc1c(OC)cc([C@@H]2c3cc4c(cc3[C@@H](O[C@@H]3O[C@@H]5CO[C@@H](C)O[C@H]5[C@H](O)[C@H]3O)[C@H]3CNC(=O)[C@H]23)OCO4)cc1OC [Example 11, 6H-Pyrrolo[3',4':6,7]naphtho[2,3-d]-1,3-dioxole-6-one, 5,5a,7,8,8a,9-hexahydro-9[(4,6-O-ethylidene-β-D-glucopyranosyl)oxy]-5-[(3,5-dimethoxy-4-octanoyloxy)phenyl], [5R-[5α,5aβ,8aα,9β(R*)]-] | 20.69 µg/mL (≈ 29 µM) | 17.3 (≈ 24.2 µM) | 18.33 µg/mL (≈ 25.7 µM) | 18.7 (≈ 26.2 µM) | 20.2 (≈ 28.3 µM) | 12.3 (≈ 17.3 µM) | 21 (≈ 29.4 µM) | 25.92 µg/mL (≈ 36.3 µM) | 25.22 µg/mL (≈ 35.3 µM) | 12.48 µg/mL (≈ 17.5 µM) | 1
7 | COc1cc([C@@H]2c3cc4c(cc3[C@@H](O[C@@H]3O[C@@H]5CO[C@@H](C)O[C@H]5[C@H](O)[C@H]3O)[C@H]3CN(N=C(C)C)C(=O)[C@H]23)OCO4)cc(OC)c1O (relative stereo) [Example 8, 6H-Pyrrolo[3',4':6,7]naphtho[2,3-d]-1,3-dioxole-6-one, 5,5,a,7,8,8a,9-hexahydro-9-[(4,6-O-ethylidene-β-D-glucopyranosyl)oxy]-5-[(4-hydroxy-3,5-dimethoxy)phenyl]-7-[(2-propylidene)amino]-, [5 R-[5α,5aβ,8aα,9β(R*)]-] | 61.29 µg/mL and 74.21 µg/mL | 69.4 (≈ 108 µM) | 78.90 µg/mL and 108.89 µg/mL | 103 (≈ 160 µM) |  | > 250 | 43.2 (≈ 67.3 µM) | 91.26 µg/mL and 123.63 µg/mL and > 250 µg/mL | 96.26 µg/mL (≈ 150 µM) |  | 
